From patent publication US20250339399A1, “SUPRAMOLECULAR SELF-ASSEMBLY SYSTEM” (Beijing Creatron Institute of Pharmaceutical Research Co., …, priority 2022, published 2025)
Where two headings read alike, the source gives them in different places.

Assays:
[1] = cited from earlier work; for Sol / LogP: natural flavonoids (chalcone, dihydrochalcone class)
[2] = Guest molecule concentration after incubation in initial medium without polymer (Comparative Example 1); assay type: physicochemical; conditions: 37° C., pH 6.8 phosphate buffer
Method in brief: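 Dissolved guest content measured by HPLC of centrifuged supernatants (37° C., 13000 rpm, 5 min) sampled at 0.5 h, 3 h and 6 h. Incubation was polymer-free at 37° C.±0.5° C. in buffers of pH 2.0-7.4; nominal loading was set by maximum clinical dose.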

[3] = Binary supramolecular self-assembly systems of polymer and target: guest concentration over incubation time (Comparative Example 2); assay type: physicochemical; conditions: for Concentration of guest molecule in solution / Times that of the initial medium: 6 h
Method: Experiments were conducted according to the steps in Comparative Example 1, and quantitative analysis was carried out using the analytical method for each target to investigate the regulation ability […] stacking.

[4] = Binary (carrier), ternary and quaternary supramolecular self-assembly systems of polymer, carrier building block and target: guest concentration over incubation time (Examples 1-56); assay type: physicochemical; conditions: 6 h
Method in brief: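 Targets were incubated at 37 °C in pH 2.0–7.4 buffers with 0.5% polymer alone or with carrier building blocks, after 0.5 h sonication for ternary systems, and shaken at 200 rpm. Samples at 0.5–6 h were centrifuged and diluted ≥10-fold, and dissolved target was quantified by HPLC; surfactant was added if needed.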

[5] = cited from earlier work
[6] = quaternary: 0.25% 205 (102H+104) + 0.25% 313
[7] = quaternary: 0.25% 205 (102H+104) + 0.25% 318
[8] = quaternary: 204 (103E5+102H) + 301, % not stated
[9] = ternary: 0.25% 102H + 0.25% 313
[10] = ternary: 102H (0.25% where stated) + 301, carrier % not stated

O=c1c(O)c(-c2ccc(O)c(O)c2)oc2cc(O)cc(O)c12 [Quercetin]
Intrinsic solubility ([1]; parent flavonoid of the class, Table 1 basic information, unit not given): Quercetin (CAS 117-39-5) derivatives EUF (Intrinsic solubility: 1.11)

C=C1C[C@@]23CC[C@H]4[C@@](C)(CCC[C@@]4(C)C(=O)O[C@@H]4O[C@H](CO)[C@@H](O)[C@H](O)[C@H]4O)[C@@H]2CC[C@]1(O[C@@H]1O[C@H](CO)[C@@H](O)[C@H](O)[C@H]1O[C@@H]1O[C@H](CO)[C@@H](O)[C@H](O)[C@H]1O)C3 [Stevioside]
Intrinsic solubility [1]: Intrinsic solubility: 6.7 mg/ml

O=C(CCc1ccc(O)cc1)c1c(O)cc(O[C@@H]2O[C@H](CO)[C@@H](O)[C@H](O)[C@H]2O)cc1O [Trilobatin, trilobatin]
Sol ([1]; Table 1 basic information): 3.89 mg/mL

O=C(CCc1ccc(O)c(O)c1)c1c(O)cc(O[C@@H]2O[C@H](CO)[C@@H](O)[C@H](O)[C@H]2O)cc1O [Sieboldin, 1-(2,6-dihydroxy-4-{[3,4,5-trihydroxy-6-(hydroxymethyl)oxo-2-yl]oxy}phenyl)-3-(3,4-dihydroxyphenyl)propan-1-one]
LogP ([1]; Table 1 basic information): 1.32
Sol ([1]; Table 1 basic information): 11.65 mg/mL

C=C1C[C@@]23CC[C@H]4[C@@](C)(CCC[C@@]4(C)C(=O)O[C@@H]4O[C@H](CO)[C@@H](O)[C@H](O)[C@H]4O)[C@@H]2CC[C@]1(O[C@@H]1O[C@H](CO)[C@@H](O)[C@H](O)[C@H]1O)C3 [Rubusoside, rubusoside]
Intrinsic solubility [1]: Intrinsic solubility: 0.39 mg/ml

O=c1c(O)c(-c2cc(O)c(O)c(O)c2)oc2cc(O)cc(O)c12 [Myricetin]
solubility value given in Table 1 (basic information of natural flavonoids) ([1]; parent flavonoid of the class, value follows the class name): Myricetin (529-44-2) derivatives −3.14 mg/ml

CC(=O)O[C@H]1[C@H](Oc2cc(O)c(C(=O)CCc3ccc(O)cc3)c(O)c2)O[C@H](CO)[C@@H](O)[C@@H]1O [Trilobatin 2″-acetate, [(2S,3R,4S,5S,6R)-(R)-2-[3,5-dihydroxy-4-[3-(4-hydroxyphenyl)propionyl]phenoxy]-4,5-dihydroxy-6-(hydroxymethyl)oxy-3-yl]acetate]
LogP ([1]; Table 1 basic information): 2.07
Sol ([1]; Table 1 basic information): 2.08 mg/mL

O=C(CCc1ccc(O)c(O)c1)c1c(O)cc(O)cc1O [3-hydroxyphloretin, 3-(3,4-dihydroxyphenyl)-1-(2,4,6-trihydroxyphenyl)propan-1-one]
Sol ([1]; Table 1 basic information): 8.59 mg/mL

C[C@@H]1O[C@@H](O[C@H]2[C@H](Oc3cc(O)c(C(=O)CCc4ccc(O)c(O)c4)c(O)c3)O[C@H](CO)[C@@H](O)[C@@H]2O)[C@H](O)[C@H](O)[C@H]1O [Neoeriocitrin dihydrochalcone, 1-[4-[(2S,3R,4S,5S,6R)-4,5-dihydroxy-6-(hydroxymethyl)-3-[(2S,3R,4R,5R,6S)-3,4,5-trihydroxy-6-methoxy-2-yl]oxy-2-yl]oxy-2,6-dihydroxyphenyl]-3-(3,4-dihydroxyphenyl)propan-1-one]
Sol ([1]; Table 1 basic information): 21.89 mg/mL

C[C@@H]1O[C@@H](O[C@H]2[C@H](Oc3cc(O)c(C(=O)CCc4ccc(O)cc4)c(O)c3)O[C@H](CO)[C@@H](O)[C@@H]2O)[C@H](O)[C@H](O)[C@H]1O [Naringin dihydrochalcone, naringin dihydrochalcone]
LogP ([1]; Table 1 basic information): 0.90
Sol ([1]; Table 1 basic information): 6.78 mg/mL

C=C1C[C@@]23CC[C@H]4[C@@](C)(CCC[C@@]4(C)C(=O)O[C@@H]4O[C@H](CO)[C@@H](O)[C@H](O)[C@H]4O)[C@@H]2CC[C@]1(O[C@@H]1O[C@H](CO)[C@@H](O)[C@H](O[C@@H]2O[C@H](CO)[C@@H](O)[C@H](O)[C@H]2O)[C@H]1O[C@@H]1O[C@@H](C)[C@H](O)[C@@H](O)[C@H]1O)C3 [Rebaudioside C, rebaudioside C]
Intrinsic solubility [1]: Intrinsic solubility: 72.63 mg/ml

O=C(CCc1ccc(O)c(O)c1)c1c(O)cc(O)cc1O[C@@H]1O[C@H](CO)[C@@H](O)[C@H](O)[C@H]1O [3-hydroxyphloretin 2′-glucoside]
LogP ([1]; Table 1 basic information): 0.67
Sol ([1]; Table 1 basic information): 11.65 mg/mL

COc1cc(-c2oc3cc(O)cc(O)c3c(=O)c2O)ccc1O [Isorhamnetin]
Intrinsic solubility (value in the class heading) ([1]; parent flavonoid of the class, Table 1 basic information): Isorhamnetin derivatives (0.45 mg/ml)

CC(=O)c1c(C)c2cnc(Nc3ccc(N4CCNCC4)cn3)nc2n(C2CCCC2)c1=O [Palbociclib]
Concentration of guest molecule measured after different incubated time ([2]; 0.5 h): 140.4 µg/mL
Concentration of guest molecule measured after different incubated time ([2]; 3 h): 34.8 µg/mL
Concentration of guest molecule measured after different incubated time ([2]; 6 h): 31.6 µg/mL
Concentration of the target in the solution measured after different incubation time ([3]; binary system with 0.5% polymer 101, incubation 0.5 h): 163.1 µg/mL
Concentration of the target in the solution measured after different incubation time ([3]; binary system with 0.5% polymer 101, incubation 3 h): 89.0 µg/mL
Concentration of the target in the solution measured after different incubation time ([3]; binary system with 0.5% polymer 101, incubation 6 h): 85.5 µg/mL
Concentration of the target in the solution measured after different incubation time ([3]; binary system with 0.5% polymer 102, incubation 0.5 h): 205.7 µg/mL
Concentration of the target in the solution measured after different incubation time ([3]; binary system with 0.5% polymer 102, incubation 3 h): 167.0 µg/mL
Concentration of the target in the solution measured after different incubation time ([3]; binary system with 0.5% polymer 102, incubation 6 h): 154.0 µg/mL
Concentration of the target in the solution measured after different incubation time ([3]; binary system with 0.5% polymer 103, incubation 0.5 h): 259.9 µg/mL
Concentration of the target in the solution measured after different incubation time ([3]; binary system with 0.5% polymer 103, incubation 3 h): 126.5 µg/mL
Concentration of the target in the solution measured after different incubation time ([3]; binary system with 0.5% polymer 103, incubation 6 h): 109.6 µg/mL
Concentration of the target in the solution measured after different incubation time ([3]; binary system with 0.5% polymer 104, incubation 0.5 h): 105.4 µg/mL
Concentration of the target in the solution measured after different incubation time ([3]; binary system with 0.5% polymer 104, incubation 3 h): 156.4 µg/mL
Concentration of the target in the solution measured after different incubation time ([3]; binary system with 0.5% polymer 104, incubation 6 h): 144.8 µg/mL
Concentration of the target in the solution measured after different incubation time ([3]; binary system with 0.5% polymer 106, incubation 0.5 h): 131.3 µg/mL
Concentration of the target in the solution measured after different incubation time ([3]; binary system with 0.5% polymer 106, incubation 3 h): 60.3 µg/mL
Concentration of the target in the solution measured after different incubation time ([3]; binary system with 0.5% polymer 106, incubation 6 h): 58.2 µg/mL
Concentration of the target in the solution measured after different incubation time ([3]; binary system with 0.5% polymer 107, incubation 0.5 h): 103.5 µg/mL
Concentration of the target in the solution measured after different incubation time ([3]; binary system with 0.5% polymer 107, incubation 3 h): 32.0 µg/mL
Concentration of the target in the solution measured after different incubation time ([3]; binary system with 0.5% polymer 107, incubation 6 h): 27.0 µg/mL
Concentration of guest molecule in solution ([3]; binary: 0.5% 102H): 154.0 µg/mL
Times that of the initial medium ([3]; binary: 0.5% 102H): 4.9 times
Concentration of guest molecule in solution ([3]; binary: 0.5% 103E5): 105.4 µg/mL
Times that of the initial medium ([3]; binary: 0.5% 103E5): 3.3 times
Concentration of guest molecule in solution ([3]; binary: 0.5% 104): 144.8 µg/mL
Times that of the initial medium ([3]; binary: 0.5% 104): 4.6 times
Increase of the concentration of the guest molecule ([4]; 0.25% 102H, 1.0% 313 compared to the 0.25% 313 system): 16.4%
Concentration of guest molecule in solution ([4]; binary: 0.25% 301): 77.0 µg/mL
Concentration of guest molecule in solution ([4]; binary: 0.25% 302): 34.2 µg/mL
Concentration of guest molecule in solution ([4]; binary: 0.25% 310): 279.8 µg/mL
Concentration of guest molecule in solution ([4]; binary: 0.25% 313): 70.0 µg/mL
Concentration of guest molecule in solution ([4]; binary: 0.25% 318): 60.5 µg/mL
Concentration of guest molecule in solution [4, 6]: 250.7 µg/mL
Times that of the initial medium [4, 6]: 7.9 times
Concentration of guest molecule in solution [4, 7]: 257.8 µg/mL
Times that of the initial medium [4, 7]: 8.2 times
Concentration of guest molecule in solution [4, 8]: 250.4 µg/mL
Times that of the initial medium [4, 8]: 7.9 times
Concentration of guest molecule in solution ([4]; ternary: 0.25% 102H + 0.1% 313): 191.5 µg/mL
Times that of the initial medium ([4]; ternary: 0.25% 102H + 0.1% 313): 6.1 times
Concentration of guest molecule in solution ([4]; ternary: 0.25% 102H + 0.25% 302): 195.5 µg/mL
Concentration of guest molecule in solution ([4]; ternary: 0.25% 102H + 0.25% 310): 44.8 µg/mL
Concentration of guest molecule in solution [4, 9]: 361.6 µg/mL
Times that of the initial medium [4, 9]: 11.4 times
Concentration of guest molecule in solution ([4]; ternary: 0.25% 102H + 0.25% 318): 181.8 µg/mL
Concentration of guest molecule in solution ([4]; ternary: 0.25% 102H + 1.0% 313): 420.8 µg/mL
Times that of the initial medium ([4]; ternary: 0.25% 102H + 1.0% 313): 13.3 times
Concentration of guest molecule in solution ([4]; ternary: 0.25% 103E5 + 0.25% 302): 102.3 µg/mL
Concentration of guest molecule in solution ([4]; ternary: 0.25% 104 + 0.25% 302): 138.3 µg/mL
Concentration of guest molecule in solution [4, 10]: 126.9 µg/mL
Times that of the initial medium [4, 10]: 4.0 times
LogD7.4 or Log P [5]: 1.31
